As usually defined, the EC50 is the concentration at which the effect is half-maximal.

Positions count from the first letter of the chain named. Where two headings read alike, the source gives them in different places. Where no end group is shown, it is not given here. Where only a bound is given, the exact number is not on record here.

This note sets out measurements from paper PMC12738692, “Identification, characterization, and structure-activity relationship of the ASIC3-selective peptide WRPRFa” (Communications Chemistry, 2025).

One experiment addresses T1, ASIC313 (Homo sapiens, UniProt Q9UHC3).
T1 construct: placing human ASIC1a and human ASIC3 ORFs in tandem; P2A-mCherry reporter (C, cleaved yes); expressed in transfected cells; host or cells: WT CHO cells (85050302, Sigma), transient transfection
T1 sequence (Q9UHC3 1-531) 1: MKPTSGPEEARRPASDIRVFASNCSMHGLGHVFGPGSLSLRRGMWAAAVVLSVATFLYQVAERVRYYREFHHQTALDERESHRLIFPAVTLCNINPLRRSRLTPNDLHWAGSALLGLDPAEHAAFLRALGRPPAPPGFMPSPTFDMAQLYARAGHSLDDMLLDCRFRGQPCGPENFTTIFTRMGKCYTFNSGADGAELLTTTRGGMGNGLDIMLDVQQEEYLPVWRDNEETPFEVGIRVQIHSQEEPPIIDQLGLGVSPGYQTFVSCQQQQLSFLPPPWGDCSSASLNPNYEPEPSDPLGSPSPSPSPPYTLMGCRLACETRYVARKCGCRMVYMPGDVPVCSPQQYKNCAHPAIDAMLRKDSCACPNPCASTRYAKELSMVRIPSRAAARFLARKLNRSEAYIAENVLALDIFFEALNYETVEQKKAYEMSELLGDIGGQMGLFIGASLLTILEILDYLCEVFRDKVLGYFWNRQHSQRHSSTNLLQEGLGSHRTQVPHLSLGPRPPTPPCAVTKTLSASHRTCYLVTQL
T1 sequence (Q9UHC3 1-531) 2: T1 sequence (Q9UHC3 1-531) 1
As to the kind of experiment: MPC WRPRFa concentration-response on concatemer ASIC313. Conditions: read-out: lower limit EC50. The format is cell-based.

Experiment [1] concerns the target T2, human ASIC3 (Homo sapiens, UniProt Q9UHC3).
T2 construct: CHO cells stably expressing human ASIC3 (NM_004769.1)
T2 sequence (Q9UHC3 1-531): T1 sequence (Q9UHC3 1-531) 1
As to the kind of experiment: cell-based.

The next experiment addresses T3, ASIC3 E416Q (Homo sapiens, UniProt Q9UHC3, E416Q).
T3 construct: human ASIC3 (NM_004769.4); P2A-mCherry reporter (C, cleaved yes); expressed in transfected cells; host or cells: CHO cells (85050302, Sigma), transient transfection
T3 sequence (Q9UHC3 1-531 E416Q): T1 sequence (Q9UHC3 1-531) 1 with E416Q
As to the kind of experiment: MPC peptide activity on ASIC3 E416Q mutant (incl. double mutant cycle). The format is cell-based. The conditions noted are these: read-out: EC50 (95% CI). The protocol:
We individually mutated the four glutamates to glutamine to remove their charge but maintain the side chain structure (Fig. 4C). We tested each mutant by incubating HEK cells stably expressing ASIC3 or CHO cells transfected with mutant ASIC3 with 30 µM WRPRFa before a pH 6.3 acid stimulus.
All mutagenesis was performed at Genscript, and sequences were verified by nanopore sequencing by Plasmidsaurus (Eugene, OR). The numbering of ASIC3 amino acids is based on RefSeq NP_004760.1. Plasmids were transfected into CHO cells using Lipofectamine 3000 (Thermo) according to the manufacturer’s protocol. Cells were used for patch-clamp recordings 24–48 h after transfection.
CHO and HEK cells were tested in the whole-cell configuration on MPC platforms using an Axopatch 200B amplifier (Axon Instruments, San Jose, CA) and a Digidata 1322A or Digidata 1440A digitizer (Axon) using pClamp 9.2 or 10.7 (Molecular Devices, San Jose, CA), respectively. When testing transfected cells, red fluorescence from the cleaved mCherry reporter was used to identify cells expressing ASIC3, ASIC131, or ASIC313. For cells expressing transfected ASIC1a or ASIC2a, the green signal from the cleaved eGFP reporter was used. All electrophysiology data were analyzed with Clampfit 11.1 (Molecular Devices).

The target in experiment [2] is T2, human ASIC3. The format is cell-based. Conditions: 30 µM, QPatch II.
For another experiment, the target named is T4, ASIC3 E78Q (Homo sapiens, UniProt Q9UHC3, E78Q).
T4 construct: human ASIC3 (NM_004769.4); P2A-mCherry reporter (C, cleaved yes); expressed in transfected cells; host or cells: CHO cells (85050302, Sigma), transient transfection
T4 sequence (Q9UHC3 1-531 E78Q): T1 sequence (Q9UHC3 1-531) 1 with E78Q
As to the kind of experiment: MPC peptide activity on ASIC3 E78Q mutant (I3s/Ipk, peak current, double mutant cycle). It is filed as cell-based. The conditions noted are these: read-out: EC50 (95% CI).

Excerpt for ASIC3 E78Q: We then asked which of the two WRPRFa arginines interacts with the E78/E421 pair. […] To this end, we used a double mutant cycle approach to identify coupling between site 2 or site 4 of WRPRFa with the E78/E421 pair. In this case, the double mutant cycle experiment compared the change in potency caused by single mutations in either WRPRFa or ASIC3 against the change in potency caused by simultaneous mutations in WRPRFa and ASIC3. A coupling coefficient (Ω) can be calculated by dividing the product of the WT/WRPRFa potency and double mutant potency by the product of the two single mutant potencies.
(§1) For peptide concentration-response curves, Bottom was set to 0 and Top was constrained to ≤ 1 for peptides that approached plateau phase or where I3s/Ipk reached 1. […] For activation- or desensitization-pH curves, Bottom was set to 0 and Top constrained to 1.
Excerpt for ASIC313: as §1

Turning to WRPRF-NH2 [WRPRFa], the concentration giving a half-maximal response (EC50) on ASIC313 was not below 12600 nM; on human ASIC3 [1] it was 6220 nM; at ASIC3 E416Q, 2470 nM; on ASIC3 E78Q, 206 nM. Besides, the channels affected was approximately 90% on human ASIC3 [1] (100 µM, MPC) and 80% at human ASIC3 [2].
